Where two headings read alike, the source gives them in different places. Values belong to the compound of their own block, whether it stands above or below them.
What was measured:
PI3Kα = molecular target: T1, PI3Kα (Homo sapiens, UniProt P42336); assay: PI3K Alpha Leadseeker SPA Assay; format: biochemical; conditions: His-p110/p85 PI3K alpha, P33-ATP, PEI-PS Leadseeker beads; read-out: IC50 against PI3Kα
T1 construct: His
Method: PI3K Alpha Leadseeker SPA Assay
Compounds of the present invention were tested according to the following assays and found as inhibitors of PI3 kinases, particularly PI3Kα. The activities (IC50) range from 1 nM to 500 μM against PI3Kα.
SPA imaging beads are microspheres containing scintillant which emit light in the red region of the visible spectrum. As a result, these beads are ideally suited to use with a CCD imager such as the Viewlux. The Leadseeker beads used in this system are polystyrene beads that have been coupled with polyethyleneimine. When added to the assay mixture, the beads absorb both the substrate (PIP2) and product (PIP3). Adsorbed P^33-PIP3 will cause an increase in signal, measured as ADUs (analog to digital units). This protocol details the use of the PEI-PS Leadseeker beads for assays using His-p110/p85 PI3K alpha.
Solid compounds are typically plated with 0.1 μl of 100% DMSO in all wells (except column 6 and 18) of a 384-well, flat bottom, low volume plate (Greiner 784075). The compounds are serially diluted (3-fold in 100% DMSO) across the plate from column 1 to column 12 and column 13 to column 24 and leave column 6 and 18 containing only DMSO to yield 11 concentrations for each test compound. […] The signal is determined using a Viewlux detector and is then imported into curve fitting software (Activity Base) for construction of concentration response curves. […]

CK2 protein kinase = CK2 protein kinase (Homo sapiens, UniProt P68400); conditions: cited from earlier work
CK2 protein kinase, sequence (P68400 whole entry): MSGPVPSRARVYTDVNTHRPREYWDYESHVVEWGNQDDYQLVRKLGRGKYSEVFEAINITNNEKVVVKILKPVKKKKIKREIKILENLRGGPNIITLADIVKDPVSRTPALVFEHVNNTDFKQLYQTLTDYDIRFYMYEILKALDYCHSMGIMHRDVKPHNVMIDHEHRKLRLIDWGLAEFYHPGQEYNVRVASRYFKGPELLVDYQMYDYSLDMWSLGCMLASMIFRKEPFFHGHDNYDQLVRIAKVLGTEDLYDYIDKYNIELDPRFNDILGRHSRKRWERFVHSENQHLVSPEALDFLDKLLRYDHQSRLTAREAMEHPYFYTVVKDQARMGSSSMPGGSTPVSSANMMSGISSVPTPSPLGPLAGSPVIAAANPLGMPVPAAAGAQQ

Class I PI3-kinases = conditions: cited from earlier work

T1 sequence (P42336 whole entry): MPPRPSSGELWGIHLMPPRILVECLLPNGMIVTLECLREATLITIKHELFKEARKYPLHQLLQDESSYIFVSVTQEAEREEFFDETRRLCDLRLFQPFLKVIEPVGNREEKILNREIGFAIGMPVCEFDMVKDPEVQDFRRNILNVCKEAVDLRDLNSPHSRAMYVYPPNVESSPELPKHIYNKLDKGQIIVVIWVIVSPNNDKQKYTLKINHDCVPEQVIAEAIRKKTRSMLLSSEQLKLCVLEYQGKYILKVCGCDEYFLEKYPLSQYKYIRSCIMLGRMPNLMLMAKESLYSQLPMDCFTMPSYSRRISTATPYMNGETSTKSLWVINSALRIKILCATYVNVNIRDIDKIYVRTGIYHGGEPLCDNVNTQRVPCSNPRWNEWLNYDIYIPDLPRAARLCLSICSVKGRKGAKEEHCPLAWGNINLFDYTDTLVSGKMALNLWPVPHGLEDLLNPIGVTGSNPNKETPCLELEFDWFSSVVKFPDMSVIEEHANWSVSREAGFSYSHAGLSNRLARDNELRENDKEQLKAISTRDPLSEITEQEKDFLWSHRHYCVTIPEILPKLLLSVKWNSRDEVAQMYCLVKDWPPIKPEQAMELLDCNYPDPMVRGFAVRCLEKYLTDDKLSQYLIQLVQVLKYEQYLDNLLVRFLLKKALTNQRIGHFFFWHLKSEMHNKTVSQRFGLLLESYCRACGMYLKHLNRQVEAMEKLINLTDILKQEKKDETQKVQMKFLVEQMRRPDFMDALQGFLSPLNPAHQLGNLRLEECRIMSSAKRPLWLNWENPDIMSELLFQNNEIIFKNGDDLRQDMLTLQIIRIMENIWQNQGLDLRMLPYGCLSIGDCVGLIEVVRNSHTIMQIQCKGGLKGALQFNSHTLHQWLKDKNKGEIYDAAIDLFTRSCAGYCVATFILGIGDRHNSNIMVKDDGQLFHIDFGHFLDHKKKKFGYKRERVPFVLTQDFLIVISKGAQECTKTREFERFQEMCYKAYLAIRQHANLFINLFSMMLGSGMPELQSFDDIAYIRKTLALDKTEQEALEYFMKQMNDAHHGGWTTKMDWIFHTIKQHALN
T1 sequence (P27986 whole entry partner): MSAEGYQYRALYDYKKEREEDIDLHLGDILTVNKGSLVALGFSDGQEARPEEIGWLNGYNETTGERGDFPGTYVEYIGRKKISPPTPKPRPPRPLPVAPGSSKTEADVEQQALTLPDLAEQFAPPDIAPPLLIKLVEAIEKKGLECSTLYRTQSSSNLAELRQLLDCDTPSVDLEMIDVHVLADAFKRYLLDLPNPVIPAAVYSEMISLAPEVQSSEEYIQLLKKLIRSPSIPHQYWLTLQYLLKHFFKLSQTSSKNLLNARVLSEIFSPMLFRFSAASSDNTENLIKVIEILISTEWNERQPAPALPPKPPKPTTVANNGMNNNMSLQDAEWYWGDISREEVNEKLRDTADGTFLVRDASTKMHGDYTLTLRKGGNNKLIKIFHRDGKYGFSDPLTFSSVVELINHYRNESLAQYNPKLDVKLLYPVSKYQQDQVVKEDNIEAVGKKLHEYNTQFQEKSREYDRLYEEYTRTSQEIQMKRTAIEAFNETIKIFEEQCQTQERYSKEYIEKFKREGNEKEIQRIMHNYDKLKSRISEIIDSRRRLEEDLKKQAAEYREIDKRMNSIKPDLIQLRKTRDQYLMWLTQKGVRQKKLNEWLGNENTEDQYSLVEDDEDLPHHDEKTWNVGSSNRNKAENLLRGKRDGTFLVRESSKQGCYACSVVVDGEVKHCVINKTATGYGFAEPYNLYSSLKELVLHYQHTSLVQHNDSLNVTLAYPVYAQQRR

IC50 (PI3Kα): 1 nM
SMILES: O=C1NC(=O)/C(=C/c2ccc3nccc(-c4ccncc4)c3c2)S1 [Example 1, (5Z)-5-{[4-(4-pyridinyl)-6-quinolinyl]methylidene}-1,3-thiazolidine-2,4-dione]

SMILES: O=c1cc(N2CCOCC2)oc2c(-c3ccccc3)cccc12 [LY294002]
IC50 (CK2 protein kinase): 5000 to 10000 nM
IC50 (Class I PI3-kinases; read-out: IC50 values against each of these PI3-kinases): 15000 to 20000 nM

SMILES: COC[C@H]1OC(=O)c2coc3c2[C@@]1(C)C1=C(C3=O)[C@@H]2CCC(=O)[C@@]2(C)C[C@H]1OC(C)=O [wortmannin]
IC50 (Class I PI3-kinases; read-out: IC50 values against each of the various Class I PI3-kinases): 1 to 10 nM

Source: patent publication US20090306074A1, “THIAZOLIDINEDIONE DERIVATIVES AS P13 KINASE INHIBITORS” (priority 2006, published 2009)
